Reference: ChEMBL document CHEMBL1201862, “PubChem BioAssay data set” (2004)
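Grown in 96-well plates, cells were treated for 48 hours with each compound at five concentrations. Insufficient inhibition: endpoint recorded as highest concentration tested. GI50 is the concentration that inhibits growth by half.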 The source made the active and inactive calls. Cut-off read from the data, not from the text of the source: active = GI50 up to about 1.1 µM and inactive = higher.

What was measured:
Assay in all cases: NCI tumour cell line growth inhibition, 48 h
UACC-62 = system: UACC-62
SNB-19 = system: SNB-19
NCI-H522 = system: NCI-H522
NCI-H23 = system: NCI-H23
HT-29 = system: HT-29
OVCAR-8 = system: OVCAR-8
RPMI-8226 = system: RPMI-8226
SF-268 = system: SF-268
SW-620 = system: SW-620
OVCAR-3 = system: OVCAR-3
UO-31 = system: UO-31
OVCAR-5 = system: OVCAR-5
HOP-62 = system: HOP-62
KM12 = system: KM12
NCI-H226 = system: NCI-H226
NCI-H460 = system: NCI-H460

Measured: GI50

CCOc1ccc(/N=N/c2ccc3oc(=O)c(C(=O)Nc4ccc(OC)cc4)cc3c2)cc1
inactive: UACC-62 11.7 µM | SNB-19 14 µM | NCI-H522 21.8 µM | NCI-H23 19.7 µM | HT-29 42.5 µM | OVCAR-8 12.7 µM | RPMI-8226 11.1 µM | SF-268 9.1 µM | SW-620 18.5 µM | OVCAR-3 19.5 µM | UO-31 5.57 µM | OVCAR-5 32 µM | HOP-62 21.9 µM | KM12 30.8 µM

CN(C(=O)C1CC1)C1C2CN3CCC(O2)C13 (centres undefined)
inactive: UACC-62 > 100 µM | SNB-19 > 100 µM | NCI-H522 > 100 µM | NCI-H23 > 100 µM | NCI-H226 > 100 µM | HT-29 > 100 µM | RPMI-8226 > 100 µM | SF-268 > 100 µM | SW-620 > 100 µM | OVCAR-3 > 100 µM | UO-31 > 100 µM | OVCAR-5 > 100 µM | HOP-62 > 100 µM | NCI-H460 > 100 µM | KM12 > 100 µM

COc1nc(NC2OCC(OC(C)=O)C(OC(C)=O)C2OC(C)=O)c(/N=C\C=N\c2c(NC3OCC(OC(C)=O)C(OC(C)=O)C3OC(C)=O)nc(OC)n(C)c2=O)c(=O)n1C (centres undefined)
inactive: UACC-62 > 100 µM | SNB-19 > 100 µM | NCI-H522 > 100 µM | NCI-H23 > 100 µM | HT-29 > 100 µM | OVCAR-8 > 100 µM | RPMI-8226 > 100 µM | SF-268 > 100 µM | SW-620 > 100 µM | OVCAR-3 > 100 µM | UO-31 > 100 µM | OVCAR-5 > 100 µM | HOP-62 > 100 µM | NCI-H460 > 100 µM | KM12 > 100 µM

O=C(O)CSc1nnc(-c2ccccc2)[nH]1
inactive: UACC-62 > 100 µM | SNB-19 > 100 µM | NCI-H522 > 100 µM | NCI-H23 > 100 µM | NCI-H226 > 100 µM | HT-29 > 100 µM | OVCAR-8 > 100 µM | RPMI-8226 > 100 µM | SF-268 > 100 µM | SW-620 > 100 µM | OVCAR-3 > 100 µM | UO-31 > 100 µM | OVCAR-5 > 100 µM | HOP-62 > 100 µM | NCI-H460 > 100 µM | KM12 > 100 µM

O=C(/C=C/c1ccccc1O)c1cccnc1
inactive: UACC-62 > 100 µM | SNB-19 > 100 µM | NCI-H522 > 100 µM | NCI-H23 51.3 µM | NCI-H226 > 100 µM | HT-29 > 100 µM | OVCAR-8 > 100 µM | SF-268 > 100 µM | SW-620 > 100 µM | OVCAR-3 > 100 µM | UO-31 > 100 µM | OVCAR-5 > 100 µM | HOP-62 > 100 µM | NCI-H460 > 100 µM | KM12 > 100 µM

C1CC2=C(C1)C1=S(S2)SC2=C1CCC2
inactive: UACC-62 > 100 µM | SNB-19 > 100 µM | NCI-H522 > 100 µM | NCI-H23 > 100 µM | NCI-H226 > 100 µM | HT-29 > 100 µM | OVCAR-8 > 100 µM | RPMI-8226 > 100 µM | SF-268 > 100 µM | SW-620 > 100 µM | OVCAR-3 > 100 µM | UO-31 > 100 µM | OVCAR-5 > 100 µM | NCI-H460 > 100 µM | KM12 > 100 µM

O=C(O)CCC1CCc2cccc(OCC(=O)O)c2C1=O (centres undefined)
inactive: UACC-62 > 100 µM | SNB-19 > 100 µM | NCI-H23 > 100 µM | HT-29 > 100 µM | OVCAR-8 > 100 µM | RPMI-8226 > 100 µM | SW-620 > 100 µM | OVCAR-3 > 100 µM | HOP-62 > 100 µM | NCI-H460 > 100 µM

O=S(=O)(O)c1ccc(-c2c3nc(c(-c4ccc(S(=O)(=O)O)cc4)c4ccc([nH]4)c(-c4ccc(S(=O)(=O)O)cc4)c4nc(c(-c5ccc(S(=O)(=O)O)cc5)c5ccc2[nH]5)C=C4)C=C3)cc1
inactive: UACC-62 > 100 µM | SNB-19 > 100 µM | NCI-H522 26.5 µM | NCI-H23 58.1 µM | HT-29 > 100 µM | OVCAR-8 > 100 µM | RPMI-8226 > 100 µM | SF-268 92.5 µM | SW-620 > 100 µM | OVCAR-3 > 100 µM | UO-31 19.5 µM | OVCAR-5 > 100 µM | HOP-62 > 100 µM | NCI-H460 > 100 µM | KM12 > 100 µM

CC(C)N(C(=O)C12C3C4C1C1C2C3C41C#N)C(C)C (centres undefined)
inactive: UACC-62 > 100 µM | SNB-19 > 100 µM | NCI-H522 > 87.1 µM | NCI-H23 > 100 µM | NCI-H226 > 100 µM | HT-29 > 100 µM | OVCAR-8 > 100 µM | RPMI-8226 > 46.7 µM | SF-268 > 100 µM | SW-620 > 54.5 µM | OVCAR-3 > 100 µM | UO-31 > 100 µM | OVCAR-5 > 100 µM | HOP-62 > 100 µM | NCI-H460 > 100 µM | KM12 > 100 µM

C/C=C/C=N/N(c1nnc(-c2ccccc2)c(-c2ccccc2)n1)S(=O)(=O)c1ccc(C)cc1
inactive: UACC-62 3.33 µM | NCI-H522 4.75 µM | NCI-H23 14 µM | NCI-H226 15.3 µM | HT-29 11.7 µM | OVCAR-8 5.53 µM | RPMI-8226 4.19 µM | SF-268 5.46 µM | SW-620 4.05 µM | OVCAR-3 12.6 µM | UO-31 5.74 µM | OVCAR-5 19.3 µM | NCI-H460 11.1 µM | KM12 9.06 µM

C1OCC2S[C@@H]3COCO[C@@H]3C2O1 (some centres undefined)
inactive: UACC-62 > 100 µM | SNB-19 > 100 µM | NCI-H522 > 100 µM | NCI-H23 > 100 µM | NCI-H226 > 100 µM | HT-29 > 100 µM | OVCAR-8 > 100 µM | RPMI-8226 > 100 µM | SF-268 > 100 µM | OVCAR-3 > 100 µM | UO-31 > 100 µM | OVCAR-5 > 100 µM | HOP-62 > 100 µM | NCI-H460 > 100 µM | KM12 > 100 µM

C=C(C)C1CC[C@]2(C(=O)O)CCC3(C)[C@H](CCC4[C@@]5(C)CC[C@H](OC6OC(CO)C(O)C6OC6OC(C)C(O)C(O)C6O)[C@@](C)(CO)C5CC[C@]43C)C12 (some centres undefined)
inactive: UACC-62 > 100 µM | SNB-19 > 100 µM | NCI-H522 88.1 µM | NCI-H23 > 100 µM | NCI-H226 > 100 µM | HT-29 > 100 µM | OVCAR-8 > 100 µM | SF-268 > 100 µM | SW-620 > 100 µM | OVCAR-3 > 100 µM | UO-31 20.1 µM | OVCAR-5 > 100 µM | HOP-62 > 100 µM | NCI-H460 > 100 µM | KM12 > 100 µM

CCCCC1CC(c2cccc([N+](=O)[O-])c2)=NO1 (centres undefined)
inactive: UACC-62 54.8 µM | SNB-19 > 100 µM | NCI-H522 29.5 µM | NCI-H23 80.9 µM | NCI-H226 > 100 µM | HT-29 28.6 µM | OVCAR-8 70.3 µM | RPMI-8226 74.3 µM | SF-268 > 100 µM | SW-620 > 100 µM | OVCAR-3 76.2 µM | UO-31 50.9 µM | OVCAR-5 > 100 µM | HOP-62 > 100 µM | NCI-H460 75.5 µM | KM12 > 100 µM

CCc1cccc(C)c1NC(=O)CC1Sc2ccccc2NC1=O (centres undefined)
inactive: UACC-62 46.9 µM | SNB-19 57.4 µM | NCI-H522 20 µM | NCI-H23 38 µM | NCI-H226 16 µM | OVCAR-8 65.5 µM | RPMI-8226 24.4 µM | SF-268 50.7 µM | SW-620 37.8 µM | OVCAR-3 32.6 µM | UO-31 30.1 µM | OVCAR-5 42.4 µM | HOP-62 15.1 µM | NCI-H460 34.4 µM | KM12 34.9 µM

C/C(=N/O)c1sc(-c2nc(C)c(/C(C)=N\O)s2)nc1C
inactive: UACC-62 > 100 µM | SNB-19 > 100 µM | NCI-H23 > 100 µM | NCI-H226 > 100 µM | HT-29 > 100 µM | OVCAR-8 > 100 µM | RPMI-8226 > 100 µM | SF-268 > 100 µM | SW-620 > 100 µM | OVCAR-3 > 100 µM | UO-31 > 100 µM

COC(=O)/C(C#N)=C1\NN=NN1CCCN1CCOCC1
inactive: UACC-62 > 100 µM | SNB-19 > 100 µM | NCI-H522 > 100 µM | NCI-H23 > 100 µM | NCI-H226 > 100 µM | HT-29 > 100 µM | OVCAR-8 > 100 µM | RPMI-8226 > 100 µM | SW-620 > 100 µM | OVCAR-3 > 100 µM | UO-31 > 100 µM | NCI-H460 > 100 µM | KM12 > 100 µM

CC(C)(C)OC(=O)Cc1ccc2c(ccn2Cc2ccccc2)c1
inactive: UACC-62 69 µM | SNB-19 > 100 µM | NCI-H522 44.2 µM | NCI-H23 44.8 µM | NCI-H226 35.7 µM | HT-29 17.2 µM | OVCAR-8 60.3 µM | SF-268 66.4 µM | SW-620 67.1 µM | OVCAR-3 56.2 µM | UO-31 37.9 µM | OVCAR-5 42.5 µM | HOP-62 > 100 µM | NCI-H460 68.2 µM | KM12 64.3 µM

Oc1nc(S)nc2c1CCCN2
inactive: UACC-62 > 100 µM | SNB-19 > 100 µM | NCI-H522 > 100 µM | NCI-H23 > 100 µM | HT-29 > 100 µM | OVCAR-8 > 100 µM | RPMI-8226 > 100 µM | SF-268 > 100 µM | SW-620 > 100 µM | OVCAR-3 > 100 µM | UO-31 > 100 µM | OVCAR-5 > 100 µM | HOP-62 > 100 µM | KM12 > 100 µM
